# pIC50: −log10 of the molar value. Where a name gives a salt, the structure may show the parent alone. Read-outs that look alike come from different tables or passages of the source.
# What was measured:
# [1] = Multi-dose in vivo antitumor activity study, mouse weight (Example 20); design: species or system mice; conditions: CPT-11 group 10 mg/kg, caudal vein once every 2 days
# Procedure: The drugs are administered through the caudal veins of mice once every 2 days for a total of 7 times.
# At the end of the treatment cycle, the orbital venous blood of the mice is collected for later blood routine test, the mice are killed by cervical dislocation method, and tumors are removed immediately and photographed. From day 0, the mice in each group are weighed every three days, and the weights are recorded. The weight average value of each group is calculated, and mouse weight variation curve is drawn according to statistical data. At the end of the treatment cycle, tumors are removed from anesthetized mice immediately and weighted, and the tumor weight of each group is recorded. The tumor inhibition rate (%) is calculated according to the following formula: […]
# PANC-1 = experiment: Cytotoxicity test (MTT, 72 h); conditions: Homo sapiens, PANC-1, 72 h, read-out: 50% Inhibiting Concentration value (IC50)
# Procedure: (§1) Cells at logarithmic growth period are inoculated in a 96-well plate overnight, then drugs with a certain gradient concentrations are added, and incubation is carried out in a cell culture chamber (5% CO2, 37° C.) for 72 h.
# A549 = experiment: Cytotoxicity test (MTT, 72 h); conditions: Homo sapiens, A549, 72 h, read-out: 50% Inhibiting Concentration value (IC50)
# Procedure: (§2) In order to investigate the antitumor activities of the compounds, a variety of tumor cell lines for test are selected. Cells at logarithmic growth period are inoculated in a 96-well plate overnight, then drugs with a certain gradient concentrations are added, and incubation is carried out in a cell culture chamber (5% CO2, 37° C.) for 72 h.
# [2] = Solubility test, equilibrium method, UV-visible spectrophotometry; assay type: physicochemical; conditions: for solubility: thermodynamic from solid
# Procedure: The solubility test is carried out by equilibrium method. […] An appropriate amount of the compound is weighed and dissolved in 1 mL of methanol solution to prepare a control solution with a certain concentration (C0). The concentration of test solution is calculated according to the following formula: Cx=(Ax/A0)C0, wherein Cx is concentration of test solution, Ax is absorbance of test solution, C0 is concentration of control solution, and A0 is absorbance of control solution.
# SW-480 = experiment: Cytotoxicity test (MTT, 72 h); conditions: Homo sapiens, SW480, 72 h, read-out: 50% Inhibiting Concentration value (IC50)
# Procedure: as §1
# HepG2 = experiment: Cytotoxicity test (MTT, 72 h); conditions: Homo sapiens, HepG2, 72 h, read-out: 50% Inhibiting Concentration value (IC50)
# Procedure: as §2
# TPC-1 = experiment: Cytotoxicity test (MTT, 72 h); conditions: Homo sapiens, TPC1, 72 h, read-out: 50% Inhibiting Concentration value (IC50)
# Procedure: as §1
# SKOV-3 = experiment: Cytotoxicity test (MTT, 72 h); conditions: Homo sapiens, SK-OV-3, 72 h, read-out: 50% Inhibiting Concentration value (IC50)
# Procedure: as §1
# K562 = experiment: Cytotoxicity test (MTT, 72 h); conditions: Homo sapiens, K562, 72 h, read-out: 50% Inhibiting Concentration value (IC50)
# Procedure: as §2
# 143B = experiment: Cytotoxicity test (MTT, 72 h); conditions: Homo sapiens, read-out: 50% Inhibiting Concentration value (IC50)
# Procedure: as §2
# ECA-109 = experiment: Cytotoxicity test (MTT, 72 h); conditions: Homo sapiens, ECa-109, 72 h, read-out: 50% Inhibiting Concentration value (IC50)
# Procedure: as §2
# HCT-116 = experiment: Cytotoxicity test (MTT, 72 h); conditions: Homo sapiens, HCT-116, 72 h, read-out: 50% Inhibiting Concentration value (IC50)
# Procedure: as §2
# PC3 = experiment: Cytotoxicity test (MTT, 72 h); conditions: Homo sapiens, PC-3, 72 h, read-out: 50% Inhibiting Concentration value (IC50)
# Procedure: as §2
# Hela = experiment: Cytotoxicity test (MTT, 72 h); conditions: Homo sapiens, read-out: 50% Inhibiting Concentration value (IC50)
# Procedure: as §2
# MDA-MB-231 = experiment: Cytotoxicity test (MTT, 72 h); conditions: Homo sapiens, MDA-MB-231, 72 h, read-out: 50% Inhibiting Concentration value (IC50)
# Procedure: as §2
# H1975 = experiment: Cytotoxicity test (MTT, 72 h); conditions: Homo sapiens, NCI-H1975, 72 h, read-out: 50% Inhibiting Concentration value (IC50)
# Procedure: as §2
# HT-29 = experiment: Cytotoxicity test (MTT, 72 h); conditions: Homo sapiens, HT-29, 72 h, read-out: 50% Inhibiting Concentration value (IC50)
# Procedure: as §1
# BGC-823 = experiment: Cytotoxicity test (MTT, 72 h); conditions: Homo sapiens, BGC-823, 72 h, read-out: 50% Inhibiting Concentration value (IC50)
# Procedure: as §2
# [3] = common drug solvents and water; Santi et al.; cited from earlier work
# tumor = conditions: Santi et al., J Med Chem. 2014; cited from earlier work
# [4] = aqueous buffer, PBS pH 7.4, read-out: Solubility in PBS (pH = 7.4)
# [5] = water, read-out: Solubility in Water
# [6] = aqueous with cosolvent or surfactant or cyclodextrin, 0.1% aqueous solution of Tween-80, read-out: Solubility in 0.1% Tween-80
# [7] = saline or isotonic, normal saline, read-out: Solubility in Normal Saline (NS)
Structure (SMILES),pIC50 (PANC-1),pIC50 (A549),"solubility [2, 4]","solubility [2, 5]",pIC50 (SW-480),pIC50 (HepG2),pIC50 (TPC-1),pIC50 (SKOV-3),pIC50 (K562),pIC50 (143B),pIC50 (ECA-109),pIC50 (HCT-116),pIC50 (PC3),pIC50 (Hela),pIC50 (MDA-MB-231),pIC50 (H1975),pIC50 (HT-29),pIC50 (BGC-823),"solubility [2, 6]","solubility [2, 7]",other results
"CCc1c2c(nc3ccc(OC(=O)N4CCC(N5CCCCC5)CC4)cc13)-c1cc3c(c(=O)n1C2)COC(=O)[C@]3(O)CC [CPT-11, Irinotecan hydrochloride, reference compound]",4.66,4.46,843 µg/mL,6300 µg/mL,5.13,4.66,4.60,4.78,4.97,4.69,4.93,4.85,4.60,4.92,4.84,4.54,4.89,5.04,,,"Mouse Weight ([1]; day 0): 16.53 g; Mouse Weight ([1]; day 3): 15.87 g; Mouse Weight ([1]; day 6): 16.10 g; Mouse Weight ([1]; day 9): 16.96 g; Mouse Weight ([1]; day 12): 16.53 g; Mouse Weight ([1]; day 15): 16.86 g; Mouse Weight ([1]; day 18): 16.27 g; Mouse Weight ([1]; day 21): 17.28 g; solubility ([2]; 0.1% aqueous solution of Tween-80, aqueous with cosolvent or surfactant or cyclodextrin, read-out: Solubility in 0.1% Tween-80): 597 µg/mL; solubility ([2]; normal saline, saline or isotonic, read-out: Solubility in Normal Saline (NS)): 1220 µg/mL"
CCc1c2c(nc3ccc(OC(=O)NCCCOCc4cn([C@H]5O[C@@H](CO)[C@H](O)[C@@H](O)[C@@H]5O)nn4)cc13)-c1cc3c(c(=O)n1C2)COC(=O)[C@]3(O)CC [Compound 80],5.13,5.21,792 µg/mL,82.5 µg/mL,5.85,5.03,4.89,4.95,5.37,5.05,5.24,5.29,5.29,5.13,5.11,4.97,5.16,5.93,961 µg/mL,642 µg/mL,
CCc1c2c(nc3ccc(OC(=O)NCCCOCc4cn(CCO[C@H]5O[C@@H](CO)[C@H](O)[C@@H](O)[C@@H]5O)nn4)cc13)-c1cc3c(c(=O)n1C2)COC(=O)[C@]3(O)CC [Compound 81],5.00,5.08,895 µg/mL,985 µg/mL,6.07,5.20,4.94,5.12,5.22,5.09,5.11,5.14,5.16,5.00,5.28,5.01,5.03,6.15,1210 µg/mL,985 µg/mL,
CCc1c2c(nc3ccc(OC(=O)NCCCCCOCc4cn([C@H]5O[C@@H](CO)[C@H](O)[C@@H](O)[C@@H]5O)nn4)cc13)-c1cc3c(c(=O)n1C2)COC(=O)[C@]3(O)CC [Compound 87],5.12,5.20,910 µg/mL,1050 µg/mL,5.94,5.13,5.21,5.05,5.90,5.37,5.21,5.82,5.28,5.12,5.21,5.29,5.13,6.02,1110 µg/mL,894 µg/mL,
CCc1c2c(nc3ccc(OC(=O)NCCCCCOCc4cn(CCO[C@H]5O[C@@H](CO)[C@H](O)[C@@H](O)[C@@H]5O)nn4)cc13)-c1cc3c(c(=O)n1C2)COC(=O)[C@]3(O)CC [Compound 88],4.96,5.04,895 µg/mL,1130 µg/mL,6.06,5.21,5.08,5.13,5.64,5.24,5.12,5.56,5.12,4.96,5.29,5.16,5.04,6.14,1350 µg/mL,870 µg/mL,
"CCc1c2c(nc3ccc(O)cc13)-c1cc3c(c(=O)n1C2)COC(=O)[C@]3(O)CC [SN38, reference compound]",,,,,,,,,,,,,,,,,,,,,"Solubility in 0.1% Tween-80 ([2]; 0.1% aqueous solution of Tween-80): 77.4 µg/mL; Solubility in PBS (pH = 7.4) ([2]; PBS pH 7.4): 17.6 μg/mL; Solubility in Normal Saline (NS) ([2]; normal saline): 7.5 µg/mL; solubility in water, normal saline, PBS (PH 7.4) and 0.1% aqueous solution of Tween-80 (in words) ([2]; summary of Table 1): very low solubility; Solubility in Water ([2]; water): 7.7 µg/mL; solubility (in words) [3]: almost insoluble in common drug solvents and water; in vitro antitumor activity relative to irinotecan (tumor): 100-1000 times"

# — patent US20210246157A1, “CAMPTOTHECIN DERIVATIVES AND PREPARATION METHODS AND APPLICATIONS THEREOF” (priority 2018, published 2021)
